The record followed here is PubChem BioAssay AID248 (DTP/NCI, 2004).

The test concerns L1210 leukemia ip in BDF1 mice, survival T/C. Description: NCI In Vivo Anticancer Drug Screen. Data for tumor model L1210 Leukemia (intraperitoneal) in B6D2F1 (BDF1) mice. The conditions noted are these: endpoint: mean survival time, higher = longer survival. The gist of the method: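 Value reflects the ratio of survival in compound-treated mice to survival in vehicle-treated controls, with both groups carrying the same transplanted tumor.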

Setting [1] is: dose: 100.0 mg/kg/injection, schedule: Q01DX009 (ip), vehicle: Klucel (hydroxypropylcellulose) (HPC).
[2] abbreviates: dose: 200.0 mg/kg/injection, schedule: Q01DX009 (ip), vehicle: Klucel (hydroxypropylcellulose) (HPC).
[3] abbreviates: dose: 400.0 mg/kg/injection, schedule: Q01DX009 (ip), vehicle: Klucel (hydroxypropylcellulose) (HPC).
Where [4] appears, read: dose: 100.0 mg/kg/injection, schedule: Q04DX003 (ip), vehicle: Klucel (hydroxypropylcellulose) (HPC).
Where [5] appears, read: dose: 200.0 mg/kg/injection, schedule: Q04DX003 (ip), vehicle: Klucel (hydroxypropylcellulose) (HPC).
Where [6] appears, read: dose: 400.0 mg/kg/injection, schedule: Q04DX003 (ip), vehicle: Klucel (hydroxypropylcellulose) (HPC).
The mark [7] stands for this setting: dose: 100.0 mg/kg/injection, schedule: Q04DX003 (ip), vehicle: saline with Tween-80.
Where [8] appears, read: dose: 100.0 mg/kg/injection, schedule: Q01DX001 (ip), vehicle: saline.
[9] abbreviates: dose: 200.0 mg/kg/injection, schedule: Q01DX001 (ip), vehicle: saline.
The mark [10] stands for this setting: dose: 400.0 mg/kg/injection, schedule: Q01DX001 (ip), vehicle: saline.
Where [11] appears, read: dose: 50.0 mg/kg/injection, schedule: Q01DX001 (ip), vehicle: saline.
Setting [12] is: dose: 100.0 mg/kg/injection, schedule: Q01DX009 (ip), vehicle: saline.

Values joined by “and” are separate entries in the source; they are usually repeats but may differ in a detail not shown here. Equal entries are not always repeated. Inconclusive results and toxic doses are left out.

Take `CCOC(=O)C1C(C)NC(C)C(C(=O)OCC)C1c1ccccc1Cl` (configuration not stated): the T/C was 97 % of control under setting [1], 98 % of control under setting [2] and 93 % of control under setting [3].
On to `CCCCNc1nc(N)nc(N)c1[N+](=O)[O-]`, for which the T/C is 103 % of control under setting [4], 98 % of control under setting [5] and 101 % of control under setting [6].
As to `NC(CO)C(O)c1ccc([N+](=O)[O-])cc1` (configuration not stated), the T/C by setting is: under setting [1], 101 % of control; under setting [4], 91 % of control; under setting [2], 101 % of control; under setting [5], 100 % of control; under setting [3], 101 % of control; under setting [6], 98 % of control.
For the compound `CN(C)CCCN1c2ccc(O)cc2Sc2ccc(Cl)cc21`, the T/C by setting is: (dose: 3.1 mg/kg/injection, schedule: Q01DX009 (ip), vehicle: other) 90 % of control; (dose: 6.2 mg/kg/injection, schedule: Q01DX009 (ip), vehicle: other) 94 % of control; (dose: 12.5 mg/kg/injection, schedule: Q01DX009 (ip), vehicle: other) 94 % of control; (dose: 25.0 mg/kg/injection, schedule: Q01DX009 (ip), vehicle: other) 97 % of control; (dose: 50.0 mg/kg/injection, schedule: Q04DX003 (ip), vehicle: saline with Tween-80) 103 % of control; under setting [7], 103 % of control.
As for `CC(=O)OCCOC(C)=O`, the T/C is 103 % of control under setting [8], 97 % of control under setting [9] and 94 % of control under setting [10].
As to `O=C(CCl)c1c(O)cc(O)cc1O`, the T/C (dose: 75.0 mg/kg/injection, schedule: Q01DX001 (ip), vehicle: other) is 106 % of control; the T/C (dose: 150.0 mg/kg/injection, schedule: Q01DX001 (ip), vehicle: other) was 106 % of control; the T/C (dose: 300.0 mg/kg/injection, schedule: Q01DX001 (ip), vehicle: other) was 92 % of control.
As to `CCOc1ccn(C)c(=O)n1`, the T/C under setting [11] was 90 % of control and the T/C under setting [8] is 95 % of control.
As to `Nc1cc(C(=O)Nc2cccc(C3=NCCCN3)c2)ccc1C(=O)Nc1cccc(C2=NCCCN2)c1`, the T/C is 100 % of control (dose: 0.17 mg/kg/injection, schedule: Q01DX Z (ip), vehicle: water); 90 % of control (dose: 0.34 mg/kg/injection, schedule: Q01DX Z (ip), vehicle: water); 88 % of control (dose: 0.68 mg/kg/injection, schedule: Q01DX Z (ip), vehicle: water).
Consider `O=C(O)CNC(=O)c1ccc(NC(=S)Nc2ccccc2)cc1`, for which the T/C was 90 % of control (dose: 25.0 mg/kg/injection, schedule: Q01DX009 (ip), vehicle: Klucel (hydroxypropylcellulose) (HPC)); 88 % of control (dose: 50.0 mg/kg/injection, schedule: Q01DX009 (ip), vehicle: Klucel (hydroxypropylcellulose) (HPC)); 108 % of control and 91 % of control under setting [1].
For the compound `CC(=C/C(C)(C)C)/C(C)=C/C(C)(C)C`, the T/C under setting [12] was 88 % of control.
For `OC12CC[N+](Cc3ccccc3)(CC1)CC2`, the T/C is 104 % of control (dose: 75.0 mg/kg/injection, schedule: Q01DX001 (ip), vehicle: saline) and 100 % of control (dose: 150.0 mg/kg/injection, schedule: Q01DX001 (ip), vehicle: saline).
For the compound `CC(C)CCCCCc1ccc(OCCOc2ccc(C(=O)Nc3ccc(S(=O)(=O)F)cc3[N+](=O)[O-])cc2)cc1`, the T/C (dose: 100.0 mg/kg/injection, schedule: Q01DX001 (ip), vehicle: Klucel (hydroxypropylcellulose) (HPC)) is 100 % of control; the T/C (dose: 200.0 mg/kg/injection, schedule: Q01DX001 (ip), vehicle: Klucel (hydroxypropylcellulose) (HPC)) is 94 % of control; the T/C (dose: 400.0 mg/kg/injection, schedule: Q01DX001 (ip), vehicle: Klucel (hydroxypropylcellulose) (HPC)) was 94 % of control.
On to `O=C1c2ccccc2C(=O)c2c(O)c(N3CCCCC3)cc(O)c21`, for which the T/C under setting [12] is 91 % of control; the T/C (dose: 100.0 mg/kg/injection, schedule: Q04DX003 (ip), vehicle: saline) was 88 % of control; the T/C (dose: 200.0 mg/kg/injection, schedule: Q01DX009 (ip), vehicle: saline) was 89 % of control; the T/C (dose: 200.0 mg/kg/injection, schedule: Q04DX003 (ip), vehicle: saline) is 88 % of control; the T/C (dose: 400.0 mg/kg/injection, schedule: Q01DX009 (ip), vehicle: saline) was 94 % of control; the T/C (dose: 400.0 mg/kg/injection, schedule: Q04DX003 (ip), vehicle: saline) is 92 % of control.
On to `ClC1=CC2CCC1C21CC1` (configuration not stated), for which the T/C is 105 % of control (dose: 50.0 mg/kg/injection, schedule: Q01DX009 (ip), vehicle: saline with Tween-80); 92 % of control (dose: 100.0 mg/kg/injection, schedule: Q01DX005 (ip), vehicle: saline with Tween-80); 94 % of control (dose: 100.0 mg/kg/injection, schedule: Q01DX009 (ip), vehicle: saline with Tween-80); 87 % of control (dose: 100.0 mg/kg/injection, schedule: Q04DX002 (ip), vehicle: saline with Tween-80); 96 % of control (dose: 200.0 mg/kg/injection, schedule: Q01DX005 (ip), vehicle: saline with Tween-80); 97 % of control (dose: 200.0 mg/kg/injection, schedule: Q01DX009 (ip), vehicle: saline with Tween-80). Further, the T/C (dose: 200.0 mg/kg/injection, schedule: Q04DX002 (ip), vehicle: saline with Tween-80) was 100 % of control and the T/C (dose: 400.0 mg/kg/injection, schedule: Q04DX002 (ip), vehicle: saline with Tween-80) was 103 % of control.
Consider `O=[N+]([O-])c1ccc(S(=O)(=O)c2ccccc2)c([N+](=O)[O-])c1`, for which the T/C (dose: 6.0 mg/kg/injection, schedule: Q01DX001 (ip), vehicle: saline) was 93 % of control; the T/C (dose: 12.0 mg/kg/injection, schedule: Q01DX001 (ip), vehicle: saline) was 100 % of control; the T/C (dose: 25.0 mg/kg/injection, schedule: Q01DX001 (ip), vehicle: saline) is 91 % of control; the T/C under setting [11] was 100 % of control and 105 % of control; the T/C under setting [9] was 95 % of control.
On to `[Co+3].[NH-]CC(=O)[O-].[NH-]CCN(CC[NH-])CC[NH-].[O-][Cl+3]([O-])([O-])O`, for which the T/C reads like this: under setting [11], 103 % of control; under setting [8], 100 % of control; under setting [9], 103 % of control; under setting [10], 105 % of control.
Turning to `CC1(C)C2CCC(C2)C1C(=O)O` (configuration not stated), the T/C reads like this: under setting [7], 95 % of control; (dose: 200.0 mg/kg/injection, schedule: Q04DX003 (ip), vehicle: saline with Tween-80) 91 % of control; (dose: 400.0 mg/kg/injection, schedule: Q04DX003 (ip), vehicle: saline with Tween-80) 100 % of control.
As for `O=NN(CCCl)C(=O)Nc1ccc(Cn2ccc(=O)[nH]c2=O)cc1`, the T/C is, setting by setting: (dose: 18.0 mg/kg/injection, schedule: Q01DX001 (ip), vehicle: carboxymethylcellulose (CMC)) 164 % of control; (dose: 23.0 mg/kg/injection, schedule: Q01DX001 (ip), vehicle: carboxymethylcellulose (CMC)) 185 % of control; (dose: 26.0 mg/kg/injection, schedule: Q01DX001 (ip), vehicle: carboxymethylcellulose (CMC)) 152 % of control; (dose: 31.0 mg/kg/injection, schedule: Q01DX001 (ip), vehicle: carboxymethylcellulose (CMC)) 189 % of control; (dose: 40.0 mg/kg/injection, schedule: Q01DX001 (ip), vehicle: carboxymethylcellulose (CMC)) 178 % of control; (dose: 46.0 mg/kg/injection, schedule: Q01DX001 (ip), vehicle: carboxymethylcellulose (CMC)) 179 % of control. Also, the T/C runs as follows: (dose: 60.0 mg/kg/injection, schedule: Q01DX001 (ip), vehicle: carboxymethylcellulose (CMC)) 200 % of control; (dose: 62.0 mg/kg/injection, schedule: Q01DX001 (ip), vehicle: carboxymethylcellulose (CMC)) 167 % of control; (dose: 90.0 mg/kg/injection, schedule: Q01DX001 (ip), vehicle: carboxymethylcellulose (CMC)) 207 % of control; (dose: 125.0 mg/kg/injection, schedule: Q01DX001 (ip), vehicle: carboxymethylcellulose (CMC)) 107 % of control; (dose: 187.0 mg/kg/injection, schedule: Q01DX001 (ip), vehicle: carboxymethylcellulose (CMC)) 93 % of control.
As for `[O-]c1n[n+](C2CCCCC2)no1`, the T/C was 106 % of control (dose: 5.0 mg/kg/injection, schedule: Q01DX001 (ip), vehicle: other) and 101 % of control (dose: 10.0 mg/kg/injection, schedule: Q01DX001 (ip), vehicle: other).
